Experiments:
[1] = Non-human primate CSF pharmacokinetics (Study A); assay type: in vivo, Cynomolgus monkeys; conditions: female, cynomolgus monkey, NHP CSF (cisterna magna)/unbound plasma, sodium salt
Experimental: PK in NHP was determined following oral dosing (PO). A group of 4 female Cynomolgus monkeys were used for studying each compound. Compound I-20 sodium salt was formulated as a 0.06 mg/mL solution in MilliQ water. Compound I-14 sodium salt was formulated as 0.2 mg/mL solution in MilliQ water. Formulations were shipped frozen on dry ice and then thawed and mixed thoroughly prior to dosing. PO doses of 1 mg/kg for Compound I-14 and 0.3 mg/kg for Compound I-20 were administered by oral gavage.
Plasma and CSF samples were collected as follows: samples of CSF were collected at 3 and 24 hours post PO dosing. CSF samples (0.125 mL) were collected at the cisterna magna via direct needle puncture by direct dilution. Blood samples (0.8 mL) were collected from a peripheral vein at 0, 0.25, 0.5, 1, 2, 3, 6, 8, […], 24, 32 and 48 or 72 hours. These samples were kept on ice until processed for plasma. Blood samples were protein precipitated using acetonitrile. Plasma was directly transferred to individual tubes (0.125 mL) and K2EDTA was used as the anticoagulant. Plug caps were placed on the tubes and the tubes frozen at approximately −70° C. and stored until analysis. Plasma and CSF was collected and analyzed for the presence of compound.
Plasma and CSF samples were analyzed using liquid chromatography (LC) with tandem mass spectrometric detection (MS/MS) using positive electrospray ionization. The standard curve range was from 0.1 to 1000 ng/mL.
The geometrical means for the values obtained for the 4 animals in each compound's study was obtained for concentrations in CSF and in Plasma, respectively.
Kp,uu is defined as the concentration ratio of unbound drug in CSF to unbound drug in plasma. Unbound drug in plasma (or free plasma concentration) is calculated by multiplying the total plasma concentration by the unbound fraction as determined by plasma protein binding. The CSF concentration is then divided by the free plasma concentration to determine the Kp,uu. (See e.g., Di et al., J. Med. Chem., 56, 2-12 (2013))

normotensive rats = experiment: Blood pressure effects in normotensive rats after acute oral dose; assay type: in vivo, rat; conditions: for Peak ΔVMAP (mm Hg): sodium salt in Milli-Q water, vehicle-adjusted MAP; for Time at Peak: time of peak ΔVMAP
Excerpt: Male, normotensive Sprague Dawley rats were purchased from Charles River Laboratories. These rats have indwelling femoral artery catheters installed. Animals were harnessed to a tether system and attached to pressure transducers to monitor cardiovascular (CV) parameters, specifically mean arterial pressure (MAP) and heart rate (HR). Animals were acclimated to the system overnight and baseline CV parameters collected. […] A blood sample was collected from each animal through the catheter line at pre-dose and 2 hours post-dose for compound concentration quantification. Hemodynamic measures were recorded for ten hours post-dose. Fifty-four male rats were used for these studies and they were ordered to be received at a body weight range of 250-275 grams. They were single housed under controlled conditions of temperature (21±1° C.), relative humidity (36±1%) and placed in a 12-hr light-dark cycle (lights on at 6:00 AM and off at 6:00 PM) room at SmartLabs vivarium (21 Erie Street, Cambridge, MA) under protocol MIL-110. Animals were allowed ad libitum access to chow (LabDiet Prolab Isopro RMH 3000, St. Louis, MO) and water. Two sets of studies were carried out. […] […] Formulations prepared were thawed less than 4 hours before dosing and stored at room temperature or were made less than 2 hours before dosing and stored at room temperature.
This study utilized ADInstruments LabChart (v8) to collect hemodynamic data from conscious, freely moving rats tethered to a blood pressure transducer (Harvard Apparatus cat #APT300). Following an overnight acclimation to the tether and pressure transducer, animals were dosed following a 1-hr baseline recording period. Animals were administered a single oral (P.O.) dose of the sodium salt form of Compound I-14 or vehicle at a dose volume of 10 mL/kg. Data collection was continued for 10 hours post-dose.
ADInstruments LabChart (v8) was used to monitor and export hemodynamic data. Blood pressure and heart rate were continuously monitored, and data were collected at 1000 data points per second then averaged into 10-minute bins for analysis. Change from baseline MAP (ΔBMAP) and HR (ΔBHR) were calculated using the pre-dose baseline averaged over the 1-hr period prior to dosing using Microsoft Excel for Microsoft 365. This 10-minute bin dataset was used to determine peak ΔVMAP, time peak ΔVMAP, peak ΔVHR and time of peak ΔVHR. The dataset was further consolidated into 1-hr bins for the MAP and HR figures and the analysis of ΔBMAP, ΔBMAP, and ΔBHR. The definitions of these terms/abbreviations are summarized below:
Statistical analyses were performed in Graphpad Prism (v8). Significance, as compared to vehicle-treated rats, for ΔBMAP and ΔBHR data was determined by 2-way repeated measures ANOVA followed by a Dunnett's multiple comparisons test, if there was a missing data point, a mixed-effect analysis was utilized. Vehicle-adjusted MAP (ΔVMAP) was calculated by subtracting ΔBMAP of the vehicle group from the ΔBMAP of each dose group at each timepoint. Vehicle-adjusted HR (ΔVHR) was calculated in a similar manner to ΔVMAP.
Analogous studies to the ones described above were carried out with Compound I-20. […] A blood sample was collected from each animal through the catheter line at pre-dose and 2 hours post-dose for compound concentration quantification. Hemodynamic measures were recorded for ten hours post-dose.

Compound	Kp uu at 3 h ([1]; PO 1 mg/kg)	Kp uu at 24 h ([1]; PO 1 mg/kg)	Peak ΔVMAP (mm Hg) (normotensive rats; 1 mg/kg single oral dose)	Time at Peak (normotensive rats; 1 mg/kg single oral dose) [min]	Peak ΔVMAP (mm Hg) (normotensive rats; 3 mg/kg single oral dose)	Time at Peak (normotensive rats; 3 mg/kg single oral dose) [min]	Peak ΔVMAP (mm Hg) (normotensive rats; 10 mg/kg single oral dose)	Time at Peak (normotensive rats; 10 mg/kg single oral dose) [min]	Peak ΔVMAP (mm Hg) (normotensive rats; 30 mg/kg single oral dose)	Time at Peak (normotensive rats; 30 mg/kg single oral dose) [min]	effect on MAP from baseline and as adjusted from vehicle (normotensive rats; single oral dose 3, 10, and 30 mg/kg)	no effect dose on ΔBMAP (normotensive rats; single oral dose, main effect analysis, simple effects analysis and AOC) [mg/kg]	Kp uu at 3 h ([1]; PO 0.3 mg/kg)	Kp uu at 24 h ([1]; PO 0.3 mg/kg)	peak ΔBMAP (normotensive rats; formulated in PEG400, 10 mg/kg) [mm Hg]	time after dosing of maximal/peak ΔBMAP (normotensive rats; formulated in PEG400, 10 mg/kg) [min]	maximal reduction of MAP from baseline (ΔBMAP) (normotensive rats; formulated in PEG400, 10 mg/kg) [mm Hg]
Cc1cc(F)c(Cc2nc(-c3ncc(F)c(O)n3)cn3ccnc23)cc1F [Compound I-14, 5-fluoro-2-(8-(2,5-difluoro-4-methylbenzyl)imidazo[1,2-a]pyrazin-6-yl)pyrimidin-4-ol]	2 to 3	> 3	−6.2	90	−10.1	70	−22.3	30	−24.4	30	lowered MAP from baseline and as adjusted from vehicle	1	–	–	–	–	–
Oc1nc(-c2cn3ccnc3c(Cc3cc(F)ccc3F)n2)ncc1F [Compound I-20, 5-fluoro-2-(8-(2,5-difluorobenzyl)imidazo[1,2-a]pyrazin-6-yl)pyrimidin-4-ol]	–	–	−14.3	20	−19.2	20	−20.2	30	−38.1	30	–	–	≤ 1	1 to 2	−26	42	–
Oc1nc(-c2cn3ccnc3c(Cc3cccc(F)c3F)n2)ncc1F [Compound I-4, 2-(8-(2,3-Difluorobenzyl)imidazo[1,2-a]pyrazin-6-yl)-5-fluoropyrimidin-4-ol]	–	–	–	–	–	–	–	–	–	–	–	–	–	–	–	50	20
